In the NIST ThermoML archive (doi:10.1016/j.jct.2016.04.014):

Test: xn = mol fraction of the nth substance listed
Conditions: Liquid, Vibrating tube method

CCCCCCCC [octane] + CCO
mass density [kg/m3]
Conditions	100 kPa	500 kPa	5000 kPa	10000 kPa	15000 kPa	20000 kPa	25000 kPa	30000 kPa	35000 kPa	40000 kPa
293.15 K, x1 = 0.2492	743.9	744.3	748.2	752.3	756.2	759.9	763.4	766.8	770	773.2
293.15 K, x1 = 0.4999	722.3	722.6	726.5	730.6	734.4	738.1	741.6	744.9	748.1	751.2
293.15 K, x1 = 0.7503	709.6	709.9	713.7	717.7	721.5	725.1	728.6	731.9	735	738.1
303.15 K, x1 = 0.2492	735.3	735.7	739.8	744.2	748.3	752.2	755.9	759.5	762.9	766.2
303.15 K, x1 = 0.4999	713.7	714.1	718.3	722.6	726.7	730.6	734.2	737.7	741.1	744.3
303.15 K, x1 = 0.7503	701.2	701.5	705.6	709.9	713.9	717.8	721.4	724.9	728.2	731.4
313.15 K, x1 = 0.2492	726.5	726.9	731.3	736	740.4	744.5	748.4	752.1	755.7	759.1
313.15 K, x1 = 0.4999	705	705.4	709.8	714.5	718.8	722.9	726.8	730.5	734	737.4
313.15 K, x1 = 0.7503	692.6	693	697.4	702	706.3	710.3	714.1	717.8	721.2	724.6
323.15 K, x1 = 0.2492	717.4	717.9	722.6	727.6	732.2	736.6	740.7	744.6	748.4	752
323.15 K, x1 = 0.4999	696	696.4	701.2	706.1	710.8	715.1	719.2	723.1	726.8	730.4
323.15 K, x1 = 0.7503	683.8	684.2	688.9	693.8	698.4	702.7	706.8	710.6	714.2	717.8
333.15 K, x1 = 0.2492	708.2	708.6	713.7	719.1	724	728.6	733	737.1	741	744.8
333.15 K, x1 = 0.4999	686.8	687.3	692.4	697.7	702.7	707.3	711.6	715.7	719.6	723.4
333.15 K, x1 = 0.7503	674.8	675.3	680.4	685.6	690.5	695.1	699.3	703.4	707.2	710.9
353.15 K, x1 = 0.2492	–	689	695	701.1	706.8	712	716.9	721.5	725.8	730
353.15 K, x1 = 0.4999	–	667.9	674	680.2	685.8	691.1	695.9	700.5	704.8	709
353.15 K, x1 = 0.7503	–	656.6	662.6	668.7	674.3	679.5	684.3	688.7	693	697.1
373.15 K, x1 = 0.2492	–	667.6	674.8	682	688.6	694.6	700.1	705.2	710	714.6
373.15 K, x1 = 0.4999	–	647.2	654.4	661.7	668.3	674.3	679.8	684.9	689.7	694.3
373.15 K, x1 = 0.7503	–	637	644.1	651.2	657.7	663.6	669	674	678.7	683.2
